Test results taken from paper PMC5059851, “Inhibition of Hedgehog-dependent tumors and cancer stem cells by a newly identified naturally occurring chemotype” (Cell Death & Disease, 2016).

Target: T1, human Smo D473H (Homo sapiens, UniProt Q99835, D473H)
T1 construct: Myc-DDK; expressed in transfected cells; host or cells: HEK293T
Assay: Bodipy-Cyclopamine (BC) binding assay, HEK293T cells transfected with human Smo D473H
Experimental: Cells were washed in PBS supplemented with 0.5% fetal bovine serum, fixed in 4% paraformaldehyde in phosphate-buffered saline (PBS) for 10 min, and incubated for 2 h at 37 °C both in the same medium supplemented with Bodipy-Cyclopamine (5 nM) and the studied compounds. The cells were permeabilized with Triton X100 (Sigma) 0.2%. Dako Fluorescent mounting (Dako, Carpinteria, CA, USA) was used as mounting medium and Hoechst reagent for staining of the cell nuclei. Bodipy (green) and Hoechst (blue) signals were analyzed in three to four representative fields per coverslip (× 20 magnification, 1000 cells/field). Data were expressed as percentage of BC incorporation observed with BC alone.[95]

T1 sequence (Q99835 28-787 D473H): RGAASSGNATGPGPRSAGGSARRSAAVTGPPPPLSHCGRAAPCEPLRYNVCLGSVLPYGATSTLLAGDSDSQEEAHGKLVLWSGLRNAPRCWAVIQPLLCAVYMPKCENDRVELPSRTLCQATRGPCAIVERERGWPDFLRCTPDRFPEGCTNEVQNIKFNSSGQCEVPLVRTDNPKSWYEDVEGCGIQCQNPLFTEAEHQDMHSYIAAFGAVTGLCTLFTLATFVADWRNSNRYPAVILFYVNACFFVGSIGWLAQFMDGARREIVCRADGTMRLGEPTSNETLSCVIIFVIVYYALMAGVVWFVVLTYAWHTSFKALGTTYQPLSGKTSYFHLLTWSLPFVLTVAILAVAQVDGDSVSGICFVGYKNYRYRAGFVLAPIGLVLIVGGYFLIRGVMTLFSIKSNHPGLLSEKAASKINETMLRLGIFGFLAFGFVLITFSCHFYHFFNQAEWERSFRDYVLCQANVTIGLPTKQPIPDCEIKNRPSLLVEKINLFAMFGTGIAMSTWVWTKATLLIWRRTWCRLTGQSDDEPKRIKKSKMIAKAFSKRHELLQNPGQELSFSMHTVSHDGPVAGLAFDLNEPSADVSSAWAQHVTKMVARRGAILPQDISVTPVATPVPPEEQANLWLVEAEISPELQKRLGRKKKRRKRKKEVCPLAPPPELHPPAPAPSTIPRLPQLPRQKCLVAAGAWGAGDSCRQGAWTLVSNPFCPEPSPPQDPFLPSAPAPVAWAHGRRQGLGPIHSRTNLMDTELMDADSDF

IC50 (BC (5 nM) displacement, transiently transfected 293T cells): 22.7 µM
activity on the D473H drug-resistant Smo mutant (BC displacement assay): active
Fold shift human Smo (IC50 Smo D473H / IC50 Smo WT): 0.9257
loss of affinity for the resistant Smo mutants in binding assay (resistant Smo mutants versus WT): conserved the same affinity
Structure (SMILES): COc1ccc(C=CC(=O)c2cc(OC)c(OC)cc2OC)cc1OC [Compound 12, 3-(3,4-dimethoxy-phenyl)-1-(2,4,5-trimethoxy-phenyl)-2-propen-1-one]
